This note sets out measurements from patent publication US7875621B2, “Substituted 2-alkyl quinazolinone derivatives as PARP inhibitors” (Janssen Pharmaceutica NV, priority 2004, dated 2011).

The target in the first data set is PARP-1 enzyme (Homo sapiens, UniProt P09874). The data set is described as follows: In vitro filtration assay for PARP-1 inhibitory activity. Format: biochemical.
Sequence of PARP-1 enzyme (P09874 whole entry): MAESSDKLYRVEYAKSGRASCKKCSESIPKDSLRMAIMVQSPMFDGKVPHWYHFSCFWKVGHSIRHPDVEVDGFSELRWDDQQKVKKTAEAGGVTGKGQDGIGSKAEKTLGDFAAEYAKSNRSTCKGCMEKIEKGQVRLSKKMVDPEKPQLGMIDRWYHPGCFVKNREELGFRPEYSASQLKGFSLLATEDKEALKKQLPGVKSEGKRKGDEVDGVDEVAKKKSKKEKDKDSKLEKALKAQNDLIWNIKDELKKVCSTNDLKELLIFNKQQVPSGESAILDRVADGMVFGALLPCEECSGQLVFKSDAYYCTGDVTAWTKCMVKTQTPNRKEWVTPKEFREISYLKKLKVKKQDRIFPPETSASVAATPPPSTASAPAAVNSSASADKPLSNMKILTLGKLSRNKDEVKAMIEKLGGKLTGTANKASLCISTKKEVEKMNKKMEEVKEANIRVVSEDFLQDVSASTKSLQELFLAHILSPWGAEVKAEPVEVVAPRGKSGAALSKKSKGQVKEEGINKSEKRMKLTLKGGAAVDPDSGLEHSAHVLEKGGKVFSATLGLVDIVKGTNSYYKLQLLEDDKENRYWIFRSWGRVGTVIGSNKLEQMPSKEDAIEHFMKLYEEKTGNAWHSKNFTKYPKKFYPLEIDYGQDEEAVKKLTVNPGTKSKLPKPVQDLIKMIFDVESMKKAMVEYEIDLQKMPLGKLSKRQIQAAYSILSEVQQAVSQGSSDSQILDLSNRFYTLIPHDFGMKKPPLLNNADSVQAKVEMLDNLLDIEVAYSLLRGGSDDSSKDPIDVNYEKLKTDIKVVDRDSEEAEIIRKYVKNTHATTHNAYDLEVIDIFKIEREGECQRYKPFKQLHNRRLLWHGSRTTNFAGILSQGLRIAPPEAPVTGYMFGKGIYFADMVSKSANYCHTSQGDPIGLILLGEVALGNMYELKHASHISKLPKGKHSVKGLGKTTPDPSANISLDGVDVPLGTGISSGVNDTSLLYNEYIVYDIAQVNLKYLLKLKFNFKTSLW
Settings: not given
The protocol: In Vitro Filtration Assay for PARP-1 Inhibitory Activity
Compounds of the present invention were tested in an in vitro filtration assay assessing PARP-1 activity (triggered in the presence of nicked DNA) by means of its histone poly(ADP-ribosyl)ation activity using [^32P]-NAD as ADP-ribosyl donor. The radioactive ribosylated histones were precipitated by trichloroacetic acid (TCA) in 96-well filterplates and the incorporated [^32P] measured using a scintillation counter
A mixture of histones (stock solution: 5 mg/ml in H2O), NAD^+ (stock solution: 100 mM in H2O), and [^32P]-NAD^+ in incubation buffer (50 mM Tris/HCl, pH 8; 0.2 mM DTT; 4 mM MgCl2) was made. A mixture of the PARP-1 enzyme (5-10 μg/ml) and nicked DNA was also made. The nicked DNA was prepared as described in the in vitro SPA for PARP-1 inhibitory activity. […] of the PARP-1 enzyme/DNA mixture together with 1 μl of compound in DMSO and 25 μl of histones-NAD^+/[^32P]-NAD^+ mixture was added per well of a 96-well filterplate (0.45 μm, supplier Millipore). The final concentrations in the incubation mixture were 2 μg/ml for the histones, 0.1 mM for the NAD^+, […] (0.5 μC) for the [^32P]-NAD^+ and 2 μg/ml for the nicked DNA. Plates were incubated for 15 min. at room temperature and the reaction was terminated by the addition of 10 μl ice cold 100% TCA followed by the addition of 10 μl ice-cold BSA solution (1% in H2O). The protein fraction was allowed to precipitate for 10 min. at 4° C. and plates were vacuum filtered. The plates were subsequently washed with, for each well, 1 ml of 10% ice cold TCA, 1 ml of 5% ice cold TCA and 1 ml of 5% TCA at room temperature. Finally 100 μl of scintillation solution (Microscint 40, Packard) was added to each well and the plates were transferred to a TopCountNXT™ (supplier: Packard) for scintillation counting and values were expressed as counts per minute (cpm). For each experiment, controls (containing PARP-1 enzyme and DMSO without compound), a blank incubation (containing DMSO but no PARP-1 enzyme or compound) and samples (containing PARP-1 enzyme and compound dissolved in DMSO) were run in parallel. All compounds tested were dissolved and eventually further diluted in DMSO. In first instance, compounds were tested at a concentration of 10^−5M. […] In each test, the blank value was subtracted from both the control and the sample values. The control sample represented maximal PARP-1 enzyme activity. For each sample, the amount of cpm was expressed as a percentage of the mean cpm value of the controls. When appropriate, IC50-values (concentration of the drug, needed to reduce the PARP-1 enzyme activity to 50% of the control) were computed using linear interpolation between the experimental points just above and below the 50% level. Herein the effects of test compounds are expressed as pIC50 (the negative log value of the IC50-value). As a reference compound, 4-amino-1,8-naphthalimide was included to validate the filtration assay.
In the case of `O=C1NC(CCN2CCC(n3c(=O)[nH]c4ccccc43)CC2)Nc2ccccc21` (stereo not drawn) [Compound 13], the IC50 was 4660 nM.

The data set is the same for the next values; noted with them: [32P]-NAD, nicked DNA, histones; read-out: in vitro filter assay PARP-1 pIC50 (converted).
`O=C1NCN(c2ccccc2)C12CCN(CCCc1nc3ccccc3c(=O)[nH]1)CC2` [Compound 2]: the IC50 is 4980 nM.

With `O=C(CC1CCN(CCc2nc3ccccc3c(=O)[nH]2)CC1)c1ccc(F)cc1` [Compound 3], the IC50 was 4260 nM.

For the compound `NC(=O)C1(c2ccccc2)CCN(CCCc2nc3ccccc3c(=O)[nH]2)CC1` [Compound 4], the IC50 was 76.7 nM.

On to `NC(=O)C1(c2ccccc2)CCN(CCCC2NC(=O)c3ccccc3N2)CC1` (stereo not drawn) [Compound 5], for which the IC50 is 300 nM.

For the compound `O=C1NC(CCN2CCC3(CC2)C(=O)NCN3c2ccccc2)Nc2ccccc21` (stereo not drawn) [Compound 6], the IC50 was 2140 nM.

Regarding `O=C1NC(CCCN2CCC(n3c(=O)[nH]c4ccccc43)CC2)Nc2ccccc21` (stereo not drawn) [Compound 7], the IC50 is 4160 nM.

With `O=C(NC1CCN(CCCC2NC(=O)c3ccccc3N2)CC1)c1ccccc1` (stereo not drawn) [Compound 8], the IC50 was 1570 nM.

Consider `O=C(c1ccc(F)cc1)C1CCN(CCc2nc3ccccc3c(=O)[nH]2)CC1` [Compound 9], for which the IC50 is 5710 nM.

Take `NC(=O)C1(N2CCOCC2)CCN(CCCc2nc3ccccc3c(=O)[nH]2)CC1` [Compound 11]: the IC50 was 1140 nM.

For the compound `O=C(NC1CCN(CCCc2nc3ccccc3c(=O)[nH]2)CC1)c1ccccc1` [Compound 12], the IC50 was 673 nM.

As for `O=C(c1ccc(F)cc1)C1CCN(CCCc2nc3ccccc3c(=O)[nH]2)CC1` [Compound 14], the IC50 is 546 nM.

Test system in the next data set: not given
Assay: not given
Settings: not given
As usually defined, the melting point is the temperature of the solid-liquid transition. In turn, `O=C(CC1CCN(CCc2nc3ccccc3c(=O)[nH]2)CC1)c1ccc(F)cc1` [Compound 3] came in with a melting point of 159.1 °C.

For `NC(=O)C1(c2ccccc2)CCN(CCCc2nc3ccccc3c(=O)[nH]2)CC1` [Compound 4], the melting point amounted to 138.9 °C.

Take `NC(=O)C1(c2ccccc2)CCN(CCCC2NC(=O)c3ccccc3N2)CC1` (stereo not drawn) [Compound 5]: the melting point was found to be 216.1 °C.
